The text below walks through data of patent US20150330989A1, “METHOD AND SYSTEM FOR DIAGNOSING AND TREATING PREECLAMPSIA” (THE BRIGHAM AND WOMEN'S HOSPITAL, INC., priority 2012, published 2015).

In one test the target is factor D (Homo sapiens, UniProt P00746). As to conditions: site of action factor D; cited from earlier work.
In the next test the target is T1, C2, classical (Homo sapiens, UniProt P06681).
T1 sequence (P06681 21-752): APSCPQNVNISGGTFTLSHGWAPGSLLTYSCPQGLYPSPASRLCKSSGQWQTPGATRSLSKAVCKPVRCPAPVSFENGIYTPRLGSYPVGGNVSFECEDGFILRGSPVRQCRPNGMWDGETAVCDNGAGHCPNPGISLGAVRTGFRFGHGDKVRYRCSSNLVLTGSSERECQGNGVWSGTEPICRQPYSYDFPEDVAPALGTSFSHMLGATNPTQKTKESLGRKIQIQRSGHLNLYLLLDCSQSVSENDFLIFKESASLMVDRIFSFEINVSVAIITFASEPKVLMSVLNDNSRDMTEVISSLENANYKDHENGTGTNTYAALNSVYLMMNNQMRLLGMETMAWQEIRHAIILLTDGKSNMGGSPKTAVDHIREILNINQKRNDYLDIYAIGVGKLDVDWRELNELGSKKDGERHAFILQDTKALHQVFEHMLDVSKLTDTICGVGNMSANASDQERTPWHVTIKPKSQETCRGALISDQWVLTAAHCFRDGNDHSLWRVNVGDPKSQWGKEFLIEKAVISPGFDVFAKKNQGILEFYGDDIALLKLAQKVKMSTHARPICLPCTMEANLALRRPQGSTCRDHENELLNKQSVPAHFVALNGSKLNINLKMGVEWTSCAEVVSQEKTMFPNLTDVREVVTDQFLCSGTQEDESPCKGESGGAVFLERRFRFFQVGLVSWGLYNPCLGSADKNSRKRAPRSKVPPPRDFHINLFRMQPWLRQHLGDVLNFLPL
The following applies: in vitro; cited from earlier work.

A further test relates to patent ductus arteriosus. Description: NICU course of the neonate. It counts as in vivo, human. The procedure: The neonate was intubated at 10 min of life for respiratory support and admitted to the NICU. They were extubated the following morning after one dose of surfactant; blood cultures were negative; and head ultrasound was normal. NICU course was notable for a patent ductus arteriosus (responsive to Indomethacin) and inguinal hernia repair (day 67), after which they were discharged home in good condition. There were trace levels of Eculizumab in cord blood samples taken at delivery, thought secondary to contamination with maternal blood.

Test [1] deals with severe preeclampsia/HELLP syndrome. Description: Case report: Eculizumab treatment of a pregnant patient with severe preeclampsia/HELLP syndrome. The class given is in vivo, human. As to conditions: initial course during Eculizumab treatment.
Another test deals with T2, C3 convertase, classical (Homo sapiens, UniProt P06681).
T2 sequence (P06681 244-752 limits assumed): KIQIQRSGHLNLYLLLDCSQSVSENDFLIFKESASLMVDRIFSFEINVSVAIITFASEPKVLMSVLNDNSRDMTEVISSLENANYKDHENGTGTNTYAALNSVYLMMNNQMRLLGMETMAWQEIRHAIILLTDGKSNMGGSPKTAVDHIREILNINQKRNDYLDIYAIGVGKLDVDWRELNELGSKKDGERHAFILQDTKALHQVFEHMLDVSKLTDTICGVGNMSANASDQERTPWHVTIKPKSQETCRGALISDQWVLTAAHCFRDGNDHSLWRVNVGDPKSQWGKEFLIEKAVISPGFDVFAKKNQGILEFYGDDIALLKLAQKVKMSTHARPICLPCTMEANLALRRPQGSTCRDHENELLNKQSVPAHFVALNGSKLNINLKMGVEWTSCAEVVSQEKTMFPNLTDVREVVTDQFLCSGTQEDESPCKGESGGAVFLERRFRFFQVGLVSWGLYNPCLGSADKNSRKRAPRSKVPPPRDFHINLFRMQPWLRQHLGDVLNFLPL
As to conditions: in vitro; cited from earlier work.

As usually defined, the IC50 is the concentration that gives 50% inhibition.

Sequence of factor D (P00746 26-253): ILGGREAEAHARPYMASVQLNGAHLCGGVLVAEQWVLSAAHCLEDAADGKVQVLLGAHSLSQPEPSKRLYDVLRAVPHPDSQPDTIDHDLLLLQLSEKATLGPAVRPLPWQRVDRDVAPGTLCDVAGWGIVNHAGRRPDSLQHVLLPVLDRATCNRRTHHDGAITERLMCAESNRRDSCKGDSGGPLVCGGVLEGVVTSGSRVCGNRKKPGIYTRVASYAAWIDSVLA

Regarding `N=C(N)c1cc2ccc(OC(=O)c3cccs3)cc2s1` [BCX-1470], on factor D, the IC50 is 0.096 µM.
In the case of `CC1(C)[C@@H](O[C@H]2O[C@H](C(=O)O)[C@@H](O)[C@H](O)[C@H]2O[C@@H]2O[C@H](C(=O)O)[C@@H](O)[C@H](O)[C@H]2O)CC[C@]2(C)[C@H]3C(=O)C=C4[C@@H]5C[C@@](C)(C(=O)O)CC[C@]5(C)CC[C@@]4(C)[C@]3(C)CC[C@@H]12` [Glycyrrhizin], at C2, classical, the IC50 was 35 µM.
As for `COc1ccc2c(c1)c(CC(=O)O)c(C)n2C(=O)c1ccc(Cl)cc1` [Indomethacin], the “patent ductus arteriosus, response” value with patent ductus arteriosus is “responsive”.
Take `CC(CCc1ccccc1)NCC(O)c1ccc(O)c(C(N)=O)c1` (stereo not drawn) [Labetalol]: the “escalating blood pressures, response” value in test [1] was “responded”.
Regarding `NS(=O)(=O)c1cc(C(=O)O)c(NCc2ccco2)cc1Cl` [Lasix], in test [1], the “pulmonary edema, response” value is “responded”.
As to `O=C(/C=C/c1ccc(O)c(O)c1)O[C@H](Cc1ccc(O)c(O)c1)C(=O)O` [Rosmarinic acid], the IC50 at C3 convertase, classical is 5 to 10 µM.
